Reference: patent publication US6919043B2, “Method of sterilization for container, apparatus using therefor and heat treatment for container” (Dai Nippon Printing Co., Ltd., priority 2002, dated 2005)
Where two headings read alike, the source gives them in different places.

Tested on: Bacillus subtilis spore
Conditions: rinsing 3 sec, log(adhesion bacilli/survival bacilli)
Method: Sterilization process was performed, changing the conditions of a detail according to the following procedure for PET bottle (bottle made from a polyethylene terephthalate) with a capacity of 500 ml.
The hot blast 3 was supplied to the interior of the bottle per minute 0.1 m from the nozzle with a bore of 10 mm, and the preheating of the bottle was carried out. The temperature of hot blast was set as 105° C.-125° C. near the nose of the nozzle, and the amount of insertions into the bottle of the nozzle was set as 30 mm. Simultaneously, the hot blast of 85° C. was turned and sprayed on the lip portion of a bottle by the flow rate of 3 per minute 0.1 m from the nozzle with a bore of 50 mm. In addition, the number of nozzles for the lip portion heating was two to one bottle. The blasting time of the hot blast from each nozzle was set up in 3 seconds. The temperature in the bottle after the hot blast supplying had reached 50° C.
The bottle was left for 0.5-3.5 seconds after the mist supplying. Then, the nozzle was inserted into the bottle and hot blast was blown for 1 second. The bore of the nozzle, the amount of insertions of the nozzle, and the temperature and the flow rate of the hot blast were the same as the preheating.
The bottle was left for 1-3.5 second after hot blast blowing in. Then, the bottle was inverted and was inserted the a nozzle a nozzle with a bore of 6 mm in the interior, and the bottle was rinsed for aseptic water which is heated by 70° C. for 3 seconds. The flow rate of aseptic water was 8.5 L/min.
Moreover, a part of process was omitted when sterilization process was performed.
About each of each sterilization conditions, five bottles with the Bacillus subtilis spore of 103, 104, and 105 was sterilized, the trypto-soy bouillon medium was distributed aseptically in the bottle, and the existence of culture and sterilization was evaluated. The bacterial number of survivals was computed by the most probable number (MPN: most probable number) in probability theory from the test result in each sterilization conditions, and the following formula estimated the sterilization effect in quest of the opposite numeric value of the number of adhesion bacilli, and the number of survival bacilli.
Sterilization effect=log (the number of adhesion bacilli/the number of survival bacilli).

`OO` [hydrogen peroxide] was tested, and the Sterilization effect (Condition 1: preheating 50 °C, mist 35 μl, leaving 3.5 sec, hot blast Yes, standing 1.0 sec) was 6.5, the Sterilization effect (Condition 2: preheating 50 °C, mist 25 μl, leaving 3.5 sec, hot blast Yes, standing 1.0 sec) was 5.5 and the Sterilization effect (Condition 3: preheating 50 °C (neck portion not heated from the outside), mist 20 μl, leaving 3.5 sec, hot blast Yes, standing 1.0 sec) was 5.0. The Sterilization effect (Condition 4: preheating 50 °C, mist 15 μl, leaving 3.5 sec, hot blast Yes, standing 1.0 sec) was 4.5, the Sterilization effect (Condition 5: preheating 50 °C (neck portion heated from the exterior), mist 20 μl, leaving 3.5 sec, hot blast Yes, standing 1.0 sec) was 5.5 and the Sterilization effect (Condition 6: preheating No, mist 40 μl, leaving 3.5 sec, hot blast Yes, standing 1.0 sec) was 3.0. For the same compound, the Sterilization effect (Condition 7: preheating No, mist 20 μl, leaving 3.5 sec, hot blast Yes, standing 1.0 sec) was <2, the Sterilization effect (Condition 8: preheating 50 °C, mist 30 μl, leaving 0.5 sec, hot blast Yes, standing 3.5 sec) was 3.0 and the Sterilization effect (Condition 9: preheating 50 °C, mist 20 μl, leaving 0.5 sec, hot blast Yes, standing 3.5 sec) was <2. It also gave a Sterilization effect (Condition 10: preheating 50 °C, mist 20 μl, leaving 3.5 sec, hot blast No, standing 1.0 sec) of 4.0 and a Sterilization effect (Condition 11: preheating 50 °C, mist 15 μl, leaving 3.5 sec, hot blast No, standing 1.0 sec) of 3.0.
